According to US20240116985A1, “STAPLED PEPTIDES AND METHODS THEREOF” (priority 2020, published 2024):

Assays:
[1] = target: T1, beta-catenin/TCF4 engagement (Homo sapiens, UniProt P35222); assay: Nano-BRET target engagement assay (B-cat-Halo & TCF4-Luc in HEK293 cells); format: cell-based; details: absolute IC50; read-out: NanoBRET Abs IC50
T1 construct: expressed in transfected cells; host or cells: HEK293
T1 sequence (P35222 1-781): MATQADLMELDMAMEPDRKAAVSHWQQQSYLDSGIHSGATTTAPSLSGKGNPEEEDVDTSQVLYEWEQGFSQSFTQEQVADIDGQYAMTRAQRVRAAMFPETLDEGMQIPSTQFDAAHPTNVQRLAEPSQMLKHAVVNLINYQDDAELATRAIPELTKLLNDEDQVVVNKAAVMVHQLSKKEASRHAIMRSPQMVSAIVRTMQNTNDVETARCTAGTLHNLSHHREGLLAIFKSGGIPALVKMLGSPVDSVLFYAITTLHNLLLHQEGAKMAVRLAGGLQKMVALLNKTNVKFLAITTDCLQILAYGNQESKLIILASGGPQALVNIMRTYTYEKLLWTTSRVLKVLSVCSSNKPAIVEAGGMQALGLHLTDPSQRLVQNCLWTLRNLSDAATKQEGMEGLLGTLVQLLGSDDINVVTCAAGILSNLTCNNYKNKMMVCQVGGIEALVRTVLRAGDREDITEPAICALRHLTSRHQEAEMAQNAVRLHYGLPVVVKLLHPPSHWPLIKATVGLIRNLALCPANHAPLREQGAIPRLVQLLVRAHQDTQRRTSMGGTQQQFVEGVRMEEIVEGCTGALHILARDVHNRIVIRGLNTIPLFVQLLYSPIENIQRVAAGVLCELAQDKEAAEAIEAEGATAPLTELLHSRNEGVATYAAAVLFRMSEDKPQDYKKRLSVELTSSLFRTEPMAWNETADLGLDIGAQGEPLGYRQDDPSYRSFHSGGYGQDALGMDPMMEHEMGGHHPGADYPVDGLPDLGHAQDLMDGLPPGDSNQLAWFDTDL

[2] = target: T2, full-length beta-Catenin (Uniprot ID P35222) (Homo sapiens, UniProt P35222); assay: Fluorescence polarization IC50 (beta-catenin / 5FAM-TCF4 10-53 competition); format: binding; details: fluorescence polarization; read-out: beta-Catenin FP IC50
T2 construct: 10 nM full-length beta-Catenin (Uniprot ID P35222)
T2 sequence (P35222 1-781): T1 sequence (P35222 1-781)

SMILES | IC50 [1] | IC50 [2]
CC(=O)N1CCC[C@]12CC=CCCCC1(CCCC=CCCCOC(=O)N3CC[C@@](C(=O)N[C@@H](Cc4ccccc4C(F)(F)F)C(=O)N[C@@H](Cc4csc5ccccc45)C(=O)N[C@@H](CO)C(N)=O)(C3)NC(=O)[C@H](CC(C)C)NC(=O)[C@H](Cc3ccccc3)NC(=O)[C@H](C)NC(=O)[C@H](C)NC(=O)[C@H](Cc3ccccc3C(=O)O)NC(=O)[C@H](CC(=O)O)NC1=O)NC(=O)[C@H](CC(C)(C)C)NC(=O)[C@H](CC(=O)O)NC2=O (single isomer, unassigned) [I-1661, Ac-PL3-Asp-Npg-B5-Asp-2COOHF-Ala-Ala-Phe-Leu-PyrS2-2F3MeF-BztA-Ser-NH2] | 8.3 µM | 70 nM
CC(=O)N1CCC[C@]12CC=CCCCC1(CCCC=CCCCOC(=O)N3CC[C@@](C(=O)N[C@@H](Cc4ccsc4)C(=O)N[C@@H](Cc4csc5ccccc45)C(=O)N[C@@H](CO)C(N)=O)(C3)NC(=O)[C@H](Cc3ccccc3)NC(=O)[C@H](Cc3ccccc3)NC(=O)[C@H](C)NC(=O)[C@H](C)NC(=O)[C@H](Cc3ccccc3C(=O)O)NC(=O)[C@H](CC(=O)O)NC1=O)NC(=O)[C@H](CC(C)(C)C)NC(=O)[C@H](CC(=O)O)NC2=O (single isomer, unassigned) [I-1664, Ac-PL3-Asp-Npg-B5-Asp-2COOHF-Ala-Ala-Phe-Phe-PyrS2-3Thi-BztA-Ser-NH2] | 8 µM | 22 nM
CC(=O)N1CCC[C@]12CC=CCCCC1(CCCC=CCCCOC(=O)N3CC[C@@](C(=O)N[C@@H](Cc4ccsc4)C(=O)N[C@@H](Cc4csc5ccccc45)C(=O)N[C@@H](CO)C(N)=O)(C3)NC(=O)[C@H](Cc3ccccc3)NC(=O)[C@H](Cc3ccccc3)NC(=O)[C@H](C)NC(=O)[C@H](C)NC(=O)[C@H](Cc3ccccc3C(=O)O)NC(=O)[C@H](CC(=O)O)NC1=O)NC(=O)[C@H](CC(C)(C)C)NC(=O)[C@H](CC(=O)O)NC2=O (single isomer, unassigned) [I-1665, Ac-PL3-Asp-Npg-B5-Asp-2COOHF-Ala-Ala-Phe-Phe-PyrS2-3Thi-BztA-Ser-NH2] | 9.7 µM | 17 nM
CC(=O)N1CCC[C@]12CC=CCCCC1(CCCC=CCCCOC(=O)N3CC[C@@](C(=O)N[C@@H](Cc4ccsc4)C(=O)N[C@@H](Cc4csc5ccccc45)C(=O)N[C@@H](CO)C(N)=O)(C3)NC(=O)[C@H](CC(C)C)NC(=O)[C@H](Cc3ccccc3)NC(=O)[C@H](C)NC(=O)[C@H](C)NC(=O)[C@H](Cc3ccccc3C(=O)O)NC(=O)[C@H](CC(=O)O)NC1=O)NC(=O)[C@H](CC(C)(C)C)NC(=O)[C@H](CC(=O)O)NC2=O (single isomer, unassigned) [I-1666, Ac-PL3-Asp-Npg-B5-Asp-2COOHF-Ala-Ala-Phe-Leu-PyrS2-3Thi-BztA-Ser-NH2] | 6.5 µM | 15 nM
CC(=O)N1CCC[C@]12CC=CCCCC1(CCCC=CCCCOC(=O)N3CC[C@@](C(=O)N[C@@H](Cc4ccsc4)C(=O)N[C@@H](Cc4csc5ccccc45)C(=O)N[C@H](CO)[C@@H](C)O)(C3)NC(=O)[C@H](Cc3ccccc3)NC(=O)[C@H](Cc3ccccc3)NC(=O)[C@H](C)NC(=O)[C@H](C)NC(=O)[C@H](Cc3ccccc3C(=O)O)NC(=O)[C@H](CC(=O)O)NC1=O)NC(=O)[C@H](CC(C)(C)C)NC(=O)[C@H](CC(=O)O)NC2=O (single isomer, unassigned) [I-1668, Ac-PL3-Asp-Npg-B5-Asp-2COOHF-Ala-Ala-Phe-Phe-PyrS2-3Thi-BztA-Thro1] | 16.4 µM | 29 nM
CC(=O)N1CCC[C@]12CC=CCCCC1(CCCC=CCCCCCC[C@@](C)(C(=O)N[C@@H](Cc3ccccc3)C(=O)N[C@@H](Cc3csc4ccccc34)C(=O)N[C@@H](CCC(N)=O)C(N)=O)NC(=O)[C@H](CCO)NC(=O)[C@H](Cc3ccccc3)NC(=O)[C@H](C)NC(=O)[C@H](C)NC(=O)[C@H](CCC(=O)O)NC(=O)[C@H](CC(=O)O)NC1=O)NC(=O)[C@H](CO)NC(=O)[C@H](CC(=O)O)NC2=O (stereo partly drawn) [I-1529, Ac-PL3-Asp-Ser-B5-Asp-Glu-Ala-Ala-Phe-Hse-S8-Phe-BztA-Gln-NH2] | > 20 µM | –
CCN(CC)C(=O)[C@H](CCC(N)=O)NC(=O)[C@H](Cc1csc2ccccc12)NC(=O)[C@H](Cc1ccsc1)NC(=O)[C@]12CCN(C1)C(=O)OCCCC=CCCCC1(CCCC=CC[C@]3(CCCN3C(C)=O)C(=O)N[C@@H](CC(=O)O)C(=O)N[C@@H](CC(C)(C)C)C(=O)N1)C(=O)N[C@@H](CC(=O)O)C(=O)N[C@@H](CN(CC(=O)O)CC(F)(F)F)C(=O)N[C@@H](C)C(=O)N[C@@H](C)C(=O)N[C@@H](Cc1ccccc1)C(=O)N[C@@H](CC(N)=O)C(=O)N2 (stereo partly drawn) [I-1641, Ac-PL3-Asp-Npg-B5-Asp-TfeGA-Ala-Ala-Phe-Asn-PyrS2-3Thi-BztA-Gln-NEt2] | 14.7 µM | –
CC(=O)N1CCC[C@]12CC=CCCCC1(CCCC=CCCCOC(=O)N3CC[C@@](C(=O)N[C@@H](Cc4ccsc4)C(=O)N[C@@H](Cc4csc5ccccc45)C(=O)N[C@@H](CCC(N)=O)C(N)=O)(C3)NC(=O)[C@H](CC(N)=O)NC(=O)[C@H](Cc3ccccc3)NC(=O)[C@H](C)NC(=O)C3(CC3)NC(=O)[C@H]([C@@H](C)O)NC(=O)[C@H](CC(N)=O)NC1=O)NC(=O)[C@H](CC(C)(C)C)NC(=O)[C@H](CC(=O)O)NC2=O (stereo partly drawn) [I-2492, Ac-PL3-Asp-Npg-B5-Asn-Thr-Cpg-Ala-Phe-Asn-PyrS2-3Thi-BztA-Gln-NH2] | > 20 µM | –
CC(=O)N1CCC[C@]12CC=CCCCC1(CCCC=CCCCOC(=O)N3CC(C(=O)N[C@@H](Cc4ccccc4C(F)(F)F)C(=O)N[C@@H](Cc4csc5ccccc45)C(=O)N[C@@H](CCC(N)=O)C(N)=O)(C3)NC(=O)[C@H](CC(C)C)NC(=O)[C@H](Cc3ccccc3)NC(=O)[C@H](C)NC(=O)C(C)(C)NC(=O)[C@H](Cc3cccc(C(=O)O)c3)NC(=O)[C@H](CC(=O)O)NC1=O)NC(=O)[C@H](CC(C)(C)C)NC(=O)[C@H](CC(=O)O)NC2=O (stereo partly drawn) [I-2614, Ac-PL3-Asp-Npg-B5-Asp-3COOHF-Aib-Ala-Phe-Leu-Az2-2F3MeF-BztA-Gln-NH2] | – | 97 nM
CC(=O)N1CCC[C@]12CC=CCCCC1(CCCC=CCCCCOC(=O)N3CC(C(=O)N[C@@H](Cc4ccccc4C(F)(F)F)C(=O)N[C@@H](Cc4csc5ccccc45)C(=O)N[C@@H](CCC(N)=O)C(N)=O)(C3)NC(=O)[C@H](CC(C)C)NC(=O)[C@H](Cc3ccccc3)NC(=O)[C@H](C)NC(=O)C(C)(C)NC(=O)[C@H](Cc3cccc(C(=O)O)c3)NC(=O)[C@H](CC(=O)O)NC1=O)NC(=O)[C@H](CC(C)(C)C)NC(=O)[C@H](CC(=O)O)NC2=O (stereo partly drawn) [I-2615, Ac-PL3-Asp-Npg-B5-Asp-3COOHF-Aib-Ala-Phe-Leu-Az3-2F3MeF-BztA-Gln-NH2] | – | 115 nM
CC(=O)N1CCC[C@]12CC=CCCCC1(CCCC=CCCCCOC(=O)N3CC(C(=O)N[C@@H](Cc4ccccc4C(F)(F)F)C(=O)N[C@@H](Cc4csc5ccccc45)C(=O)N[C@@H](CCC(N)=O)C(N)=O)(C3)NC(=O)[C@H](CC(C)C)NC(=O)[C@H](Cc3ccccc3)NC(=O)[C@H](C)NC(=O)C(C)(C)NC(=O)[C@H](Cc3cccc(C(=O)O)c3)NC(=O)[C@H](CC(=O)O)NC1=O)NC(=O)[C@H](CC(C)(C)C)NC(=O)[C@H](CC(=O)O)NC2=O (stereo partly drawn) [I-2616, Ac-PL3-Asp-Npg-B5-Asp-3COOHF-Aib-Ala-Phe-Leu-Az3-2F3MeF-BztA-Gln-NH2] | – | 175 nM
CC(=O)N1CCC[C@]12CC=CCCCC1(CCCC=CCCCOC(=O)N3CC(C(=O)N[C@@H](Cc4ccsc4)C(=O)N[C@@H](Cc4csc5ccccc45)C(=O)N[C@@H](CCC(N)=O)C(N)=O)(C3)NC(=O)[C@H](CC(C)C)NC(=O)[C@H](Cc3ccccc3)NC(=O)[C@H](C)NC(=O)C(C)(C)NC(=O)[C@H](Cc3cccc(C(=O)O)c3)NC(=O)[C@H](CC(=O)O)NC1=O)NC(=O)[C@H](CC(C)(C)C)NC(=O)[C@H](CC(=O)O)NC2=O (stereo partly drawn) [I-2617, Ac-PL3-Asp-Npg-B5-Asp-3COOHF-Aib-Ala-Phe-Leu-Az2-3Thi-BztA-Gln-NH2] | – | 130 nM
CC(=O)N1CCC[C@]12CC=CCCCC1(CCCC=CCCCCOC(=O)N3CC(C(=O)N[C@@H](Cc4ccsc4)C(=O)N[C@@H](Cc4csc5ccccc45)C(=O)N[C@@H](CCC(N)=O)C(N)=O)(C3)NC(=O)[C@H](CC(C)C)NC(=O)[C@H](Cc3ccccc3)NC(=O)[C@H](C)NC(=O)C(C)(C)NC(=O)[C@H](Cc3cccc(C(=O)O)c3)NC(=O)[C@H](CC(=O)O)NC1=O)NC(=O)[C@H](CC(C)(C)C)NC(=O)[C@H](CC(=O)O)NC2=O (stereo partly drawn) [I-2618, Ac-PL3-Asp-Npg-B5-Asp-3COOHF-Aib-Ala-Phe-Leu-Az3-3Thi-BztA-Gln-NH2] | – | 77 nM
CC(=O)N1CCC[C@]12CC=CCCCC1(CCCC=CCCCCOC(=O)N3CC(C(=O)N[C@@H](Cc4ccsc4)C(=O)N[C@@H](Cc4csc5ccccc45)C(=O)N[C@@H](CCC(N)=O)C(N)=O)(C3)NC(=O)[C@H](CC(C)C)NC(=O)[C@H](Cc3ccccc3)NC(=O)[C@H](C)NC(=O)C(C)(C)NC(=O)[C@H](Cc3cccc(C(=O)O)c3)NC(=O)[C@H](CC(=O)O)NC1=O)NC(=O)[C@H](CC(C)(C)C)NC(=O)[C@H](CC(=O)O)NC2=O (stereo partly drawn) [I-2619, Ac-PL3-Asp-Npg-B5-Asp-3COOHF-Aib-Ala-Phe-Leu-Az3-3Thi-BztA-Gln-NH2] | – | 36 nM
